Patent US6596064B2, “Biocidal-antifouling agents with low ecotoxicity index” (Luigi Stoppani S.p.A., priority 1999, dated 2003)

Assays:
[1] = test system: vegetation and micro-organisms (algae, bryozoas, acorn barnacles, polichaetas); experiment: Example 3: antifouling paints on fibreglass panels immersed in seawater (dockyard of Genoa), comparison with MSB and Ciclor 98; conditions: for antifouling activity: 5% in paint, not associated with Cu2O (panels P4, P5, N), MBP and MTB more than Ciclor 98 (panel P7); for 2^ Controls after a four month exposure: 0.8% in hard-matrix antifouling paint, +Cu2O per Table V (panels P1, P2), seawater, Genoa; for antifouling effectiveness: in association with Cu2O (panels P1, P2 and P8), synergistic action
Description: The compounds MBP and MTB were examined in different percentages, in hard-matrix antifouling formulations. The tests included the use of Ciclor 98, the use of the menadione sodium bisulphite (MSB) and a control panel (untreated), as is shown in Table V:
The prepared paints were applied to the fibreglass panels previously treated with a coating of epoxy paint and then immersed in seawater (dockyard of Genoa, Italy, 21/7/1999).
To determine the deposition or formation of vegetation and micro-organisms, both qualitatively and quantitatively, and to evaluate the antifouling activity of the samples, two different controls were carried out after two months (1^control) and after 4 months (2^control).

[2] = test system: vegetation and micro-organisms (algae, serpulidae, acorn barnacles, bryozoas); experiment: Example 1: antifouling paints on fibreglass panels immersed in seawater (dockyard of La Spezia); conditions: 5% in hard-matrix antifouling paint, +Cu2O (panels P34, P35)
Description: The compounds MBP and MTB were examined in different percentages, singularly and/or in combination, in hard-matrix antifouling formulations containing or not containing copper, as reported in Table I:
(§1) The different paints were applied to the fibreglass panels previously treated with a coating of epoxy paint and then immersed in seawater (dockyard of La Spezia, Italy, 9/5/2000). To determine the deposition or formation of vegetation and micro-organisms, both qualitatively and quantitatively, and to evaluate the antifouling activity of the samples, two different controls were carried out after two months (1^control) and after six months (2^control).

[3] = test system: vegetation and micro-organisms (algae, bryozoas, acorn barnacles, polichaetas); experiment: Example 2: antifouling paints on fibreglass panels immersed in seawater (dockyard of Genoa), comparison with Ciclor 98; conditions: for 2^ Controls after a four month exposure: 5% in hard-matrix antifouling paint, no copper (panels P2, P3, P4), seawater, Genoa; for antifouling activity compared to commercial antifouling product Ciclor 98: hard-matrix paints, no copper, seawater Genoa
Description: The compounds MBP and MTB were examined in different percentages, in hard-matrix antifouling formulations. The tests included the use of a common commercial antifouling product, Ciclor 98, which contains […] as active ingredient, largely used in the formulation of yatch paints, and a control panel (untreated, without biocide), as it is shown in Table III:
as §1, with “The prepared” for “The different”, “of Genoa,” for “of La Spezia,”, “Italy, 21/7/1999).” for “Italy, 9/5/2000).”, “after 4” for “after six”

| Structure (SMILES) | antifouling activity [1] | 2^ Control after a six month exposure [2] | 2^ Controls after a four month exposure [3] | antifouling activity compared to commercial antifouling product Ciclor 98 [3] | 2^ Controls after a four month exposure [1] | antifouling effectiveness [1] |
| --- | --- | --- | --- | --- | --- | --- |
| CC1(S(=O)(=O)[O-])CC(=O)c2ccccc2C1=O.[Na+] (stereo not shown) [MSB, menadione sodium bisulphite, reference compound] | did not show any antifouling activity | – | – | – | – | – |
| CC1(S(=O)(=O)O)CC(=O)c2ccccc2C1=O.Nc1nc(N)nc(N)n1 (stereo not shown) [MTB, menadione triaminotriazine bisulfite] | excellent antifouling activity | A few green algae | Clean | increased antifouling activity | Clean | excellent antifouling effectiveness |
| C1CNCCN1.CC1(S(=O)(=O)O)CC(=O)c2ccccc2C1=O.CC1(S(=O)(=O)O)CC(=O)c2ccccc2C1=O (stereo not shown) [MBP, menadione (bis) piperazine bisulfite] | excellent antifouling activity | A few green algae | Clean | increased antifouling activity | Clean | excellent antifouling effectiveness |
